Experimental data from ChEMBL document CHEMBL1201862, “PubChem BioAssay data set” (2004).
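Assay format: 96-well plates, 48-hour exposure. At the GI50, growth is halved.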 Activity calls are given as the source filed them. Rule as the data show it: active = GI50 up to about 1.1 µM and inactive = higher. Peptide text beside a SMILES is read from it.

Key:
Assay in all cases: growth of human tumour cells (NCI), 48 h
LOX IMVI = test system: LOX IMVI
T47D = test system: T47D
SK-MEL-5 = test system: SK-MEL-5
RPMI-8226 = test system: RPMI-8226
COLO 205 = test system: COLO 205
NCI/ADR-RES = test system: NCI/ADR-RES
NCI-H23 = test system: NCI-H23
EKVX = test system: EKVX
MOLT-4 = test system: MOLT-4
SF-539 = test system: SF-539
MDA-N = test system: MDA-N
DU-145 = test system: DU-145
SK-MEL-28 = test system: SK-MEL-28
SR = test system: SR
CAKI-1 = test system: CAKI-1
SF-295 = test system: SF-295
OVCAR-8 = test system: OVCAR-8
HOP-92 = test system: HOP-92
PC-3 = test system: PC-3
SN12C = test system: SN12C

Measured: GI50

Cc1ccc([S@+]([O-])c2occc2C=O)cc1
inactive: LOX IMVI 1.81 µM | T47D 2.43 µM | SK-MEL-5 10.4 µM | RPMI-8226 1.91 µM | COLO 205 14.9 µM | NCI/ADR-RES 11 µM | NCI-H23 14.5 µM | EKVX 19.8 µM | MOLT-4 1.79 µM | SF-539 11.4 µM | MDA-N 4.44 µM | DU-145 19 µM | SK-MEL-28 3.82 µM | SR 1.71 µM | CAKI-1 17.1 µM | SF-295 17.7 µM | OVCAR-8 9.93 µM | HOP-92 3.27 µM | PC-3 5.02 µM | SN12C 7.26 µM

Nc1ncc(CN2CCOCC2)c(-c2ccccc2O)n1
inactive: LOX IMVI > 100 µM | T47D > 100 µM | SK-MEL-5 > 100 µM | RPMI-8226 > 100 µM | COLO 205 > 100 µM | NCI/ADR-RES > 100 µM | NCI-H23 > 100 µM | EKVX > 100 µM | MOLT-4 > 100 µM | SF-539 > 100 µM | MDA-N > 100 µM | DU-145 > 100 µM | SK-MEL-28 > 100 µM | SR > 100 µM | CAKI-1 > 100 µM | SF-295 > 100 µM | OVCAR-8 > 100 µM | HOP-92 > 100 µM | PC-3 > 100 µM | SN12C > 100 µM

COC(=O)[C@@H]1C[C@@]23CCCN4CC[C@@]5(c6cccc(OC)c6N(C=O)[C@]15CC2)[C@@H]43
inactive: LOX IMVI > 100 µM | T47D > 100 µM | SK-MEL-5 > 100 µM | RPMI-8226 > 100 µM | COLO 205 > 100 µM | NCI/ADR-RES > 100 µM | NCI-H23 > 100 µM | EKVX > 100 µM | MOLT-4 > 100 µM | SF-539 > 100 µM | MDA-N > 100 µM | DU-145 > 100 µM | SK-MEL-28 > 100 µM | SR > 100 µM | CAKI-1 > 100 µM | SF-295 > 100 µM | OVCAR-8 > 100 µM | HOP-92 > 100 µM | PC-3 > 100 µM | SN12C > 100 µM

COc1ccc(NS(=O)(=O)c2ccc3ncn(NS(=O)(=O)c4ccc(I)cc4)c(=O)c3c2)cc1
inactive: LOX IMVI 8.77 µM | T47D > 100 µM | SK-MEL-5 > 100 µM | RPMI-8226 6.03 µM | COLO 205 > 100 µM | NCI/ADR-RES > 100 µM | NCI-H23 > 100 µM | EKVX > 100 µM | MOLT-4 > 100 µM | SF-539 > 100 µM | MDA-N > 100 µM | DU-145 > 100 µM | SK-MEL-28 > 100 µM | SR 72.9 µM | CAKI-1 > 100 µM | SF-295 > 100 µM | OVCAR-8 > 100 µM | HOP-92 > 100 µM | PC-3 > 100 µM | SN12C > 100 µM

Nc1cc(N2CCOCC2)nc(=O)n1-c1ccccc1
inactive: LOX IMVI > 100 µM | T47D > 100 µM | SK-MEL-5 > 100 µM | RPMI-8226 > 100 µM | COLO 205 > 100 µM | NCI/ADR-RES > 100 µM | NCI-H23 > 100 µM | EKVX > 100 µM | MOLT-4 > 100 µM | SF-539 > 100 µM | MDA-N > 100 µM | DU-145 > 100 µM | SK-MEL-28 > 100 µM | SR > 100 µM | CAKI-1 > 100 µM | SF-295 > 100 µM | OVCAR-8 > 100 µM | HOP-92 > 100 µM | PC-3 > 100 µM | SN12C > 100 µM

CCC(C)C(NC(=O)C(NC(=O)C(CC(N)=O)NC(=O)CN)C(C)O)C(=O)NC(C(=O)NC(C)C(=O)NC(C(=O)NC(CCC(=O)O)C(=O)NC(CC(C)C)C(=O)NC(CC(=O)O)C(=O)NC(C(=O)NC(Cc1ccc(O)cc1)C(=O)N1CCCC1C(=O)O)C(C)O)C(C)C)C(C)C (stereo not given) (H-GNTIVAVELDTYP-OH; configuration not given here)
inactive: LOX IMVI > 50 µM | T47D > 50 µM | SK-MEL-5 > 50 µM | RPMI-8226 > 50 µM | COLO 205 > 50 µM | NCI/ADR-RES > 50 µM | NCI-H23 > 50 µM | EKVX > 50 µM | MOLT-4 > 50 µM | SF-539 > 50 µM | MDA-N > 50 µM | DU-145 > 50 µM | SK-MEL-28 > 50 µM | SR > 50 µM | CAKI-1 > 50 µM | SF-295 > 50 µM | OVCAR-8 > 50 µM | HOP-92 > 50 µM | PC-3 > 50 µM | SN12C > 50 µM

CCC(CO)Nc1nc(NCc2ccccc2)c2ncn(C(C)C)c2n1 (stereo not drawn) [(RS)-ROSCOVITINE]
inactive: LOX IMVI 16.5 µM | T47D 32.8 µM | SK-MEL-5 15.8 µM | RPMI-8226 22.6 µM | COLO 205 15 µM | NCI/ADR-RES 15.4 µM | NCI-H23 13.6 µM | EKVX 18.2 µM | MOLT-4 28.5 µM | SF-539 12.6 µM | MDA-N 30.3 µM | DU-145 35.8 µM | SK-MEL-28 12.8 µM | SR 7.1 µM | CAKI-1 17.4 µM | SF-295 19.3 µM | OVCAR-8 16.7 µM | HOP-92 17.2 µM | PC-3 17.9 µM | SN12C 32.7 µM
